Measured values taken from US6358885B1, “Substituted phenylheterocyclic herbicides” (Mississippi State University, priority 1992, dated 2002).

Experiments:
Experiment in all cases: Test B preemergence/postemergence greenhouse plant response rating 0 to 10
[1] = system: barley; format: in vivo, Hordeum vulgare; conditions: for Plant response rating, Barley: 0 to 10 scale
Summary of the method: (§1)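 Planted seeds are treated preemergence with compound dissolved in a non-phytotoxic solvent, while postemergence applications go onto plants of two to eighteen cm. Plants stay in the greenhouse twelve to sixteen days and are then rated visually relative to controls.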

[2] = system: barnyardgrass; format: in vivo, Echinochloa crus-galli; conditions: for Plant response rating, Barnyardgrass: 0 to 10 scale
Summary of the method: as §1

[3] = system: bedstraw; format: in vivo, Galium aparine; conditions: for Plant response rating, Bedstraw: 0 to 10 scale
Summary of the method: as §1

[4] = system: blackgrass; format: in vivo, Alopecurus myosuroides; conditions: for Plant response rating, Blackgrass: 0 to 10 scale
Summary of the method: as §1

[5] = system: cheatgrass; format: in vivo, Bromus secalinus; conditions: for Plant response rating, Cheatgrass: 0 to 10 scale
Summary of the method: as §1

[6] = system: chickweed; format: in vivo, Stellaria media; conditions: for Plant response rating, Chickweed: 0 to 10 scale
Summary of the method: as §1

[7] = system: cocklebur; format: in vivo, Xanthium pensylvanicum; conditions: for Plant response rating, Cocklebur: 0 to 10 scale
Summary of the method: as §1

[8] = system: corn; format: in vivo, Zea mays; conditions: for Plant response rating, Corn: 0 to 10 scale
Summary of the method: as §1

[9] = system: cotton; format: in vivo, Gossypium hirsutum; conditions: for Plant response rating, Cotton: 0 to 10 scale
Summary of the method: as §1

[10] = system: crabgrass; format: in vivo, Digitaria spp.; conditions: for Plant response rating, Crabgrass: 0 to 10 scale
Summary of the method: as §1

[11] = system: giant foxtail; format: in vivo, Setaria faberii; conditions: for Plant response rating, Giant foxtail: 0 to 10 scale
Summary of the method: as §1

[12] = system: lambsquarters; format: in vivo, Chenopodium album; conditions: for Plant response rating, Lambsquarter: 0 to 10 scale
Summary of the method: as §1

[13] = system: morningglory; format: in vivo, Ipomoea hederacea; conditions: for Plant response rating, Morningglory: 0 to 10 scale
Summary of the method: as §1

[14] = system: rape; format: in vivo, Brassica napus; conditions: for Plant response rating, Rape: 0 to 10 scale
Summary of the method: as §1

[15] = system: rice; format: in vivo, Oryza sativa; conditions: for Plant response rating, Rice: 0 to 10 scale
Summary of the method: as §1

[16] = system: sorghum; format: in vivo, Sorghum bicolor; conditions: for Plant response rating, Sorghum: 0 to 10 scale
Summary of the method: as §1

[17] = system: soybean; format: in vivo, Glycine max; conditions: for Plant response rating, Soybean: 0 to 10 scale
Summary of the method: as §1

[18] = system: sugar beet; format: in vivo, Beta vulgaris; conditions: for Plant response rating, Sugar beet: 0 to 10 scale
Summary of the method: as §1

[19] = system: velvetleaf; format: in vivo, Abutilon theophrasti; conditions: for Plant response rating, Velvetleaf: 0 to 10 scale
Summary of the method: as §1

[20] = system: wheat; format: in vivo, Triticum aestivum; conditions: for Plant response rating, Wheat: 0 to 10 scale
Summary of the method: as §1

[21] = system: wild buckwheat; format: in vivo, Polygonum convolvulus; conditions: for Plant response rating, Wild buckwheat: 0 to 10 scale
Summary of the method: as §1

[22] = system: wild oat; format: in vivo, Avena fatua; conditions: for Plant response rating, Wild oat: 0 to 10 scale
Summary of the method: as §1

[23] = system: purple nutsedge; format: in vivo, Cyperus rotundus; conditions: for Plant response rating, Nutsedge: 0 to 10 scale
Summary of the method: as §1

Structure (SMILES): CCOC(=O)c1cc(-c2nn3c(c2Cl)CCCC3)c(F)cc1Cl [Compound 78]
- Plant response rating, Barley ([1]; POSTEMERGENCE, Rate 50 g/ha): 3
- Plant response rating, Barley ([1]; PREEMERGENCE, Rate 50 g/ha): 2
- Plant response rating (0 to 10 scale), Barley ([1]; PREEMERGENCE, Rate 200 g/ha): 0
- Plant response rating, Barley ([1]; Rate 200 g/ha, POSTEMERGENCE): 5
- Plant response rating, Barnyardgrass ([2]; POSTEMERGENCE, Rate 50 g/ha): 8
- Plant response rating, Barnyardgrass ([2]; PREEMERGENCE, Rate 50 g/ha): 2
- Plant response rating (0 to 10 scale), Barnyardgrass ([2]; PREEMERGENCE, Rate 200 g/ha): 6
- Plant response rating, Barnyardgrass ([2]; Rate 200 g/ha, POSTEMERGENCE): 9
- Plant response rating, Bedstraw ([3]; POSTEMERGENCE, Rate 50 g/ha): 6
- Plant response rating, Bedstraw ([3]; PREEMERGENCE, Rate 50 g/ha): 2
- Plant response rating (0 to 10 scale), Bedstraw ([3]; PREEMERGENCE, Rate 200 g/ha): 9
- Plant response rating, Bedstraw ([3]; Rate 200 g/ha, POSTEMERGENCE): 9
- Plant response rating, Blackgrass ([4]; POSTEMERGENCE, Rate 50 g/ha): 4
- Plant response rating, Blackgrass ([4]; PREEMERGENCE, Rate 50 g/ha): 4
- Plant response rating (0 to 10 scale), Blackgrass ([4]; PREEMERGENCE, Rate 200 g/ha): 7
- Plant response rating, Blackgrass ([4]; Rate 200 g/ha, POSTEMERGENCE): 7
- Plant response rating, Cheatgrass ([5]; POSTEMERGENCE, Rate 50 g/ha): 2
- Plant response rating, Cheatgrass ([5]; PREEMERGENCE, Rate 50 g/ha): 2
- Plant response rating (0 to 10 scale), Cheatgrass ([5]; PREEMERGENCE, Rate 200 g/ha): 4
- Plant response rating, Cheatgrass ([5]; Rate 200 g/ha, POSTEMERGENCE): 7
- Plant response rating, Chickweed ([6]; POSTEMERGENCE, Rate 50 g/ha): 6
- Plant response rating, Chickweed ([6]; PREEMERGENCE, Rate 50 g/ha): 6
- Plant response rating (0 to 10 scale), Chickweed ([6]; PREEMERGENCE, Rate 200 g/ha): 8
- Plant response rating, Chickweed ([6]; Rate 200 g/ha, POSTEMERGENCE): 10
- Plant response rating, Cocklebur ([7]; POSTEMERGENCE, Rate 50 g/ha): 8
- Plant response rating, Cocklebur ([7]; PREEMERGENCE, Rate 50 g/ha): 0
- Plant response rating (0 to 10 scale), Cocklebur ([7]; PREEMERGENCE, Rate 200 g/ha): 0
- Plant response rating, Cocklebur ([7]; Rate 200 g/ha, POSTEMERGENCE): 10
- Plant response rating, Corn ([8]; POSTEMERGENCE, Rate 50 g/ha): 7
- Plant response rating, Corn ([8]; PREEMERGENCE, Rate 50 g/ha): 0
- Plant response rating (0 to 10 scale), Corn ([8]; PREEMERGENCE, Rate 200 g/ha): 0
- Plant response rating, Corn ([8]; Rate 200 g/ha, POSTEMERGENCE): 9
- Plant response rating, Cotton ([9]; POSTEMERGENCE, Rate 50 g/ha): 9
- Plant response rating, Cotton ([9]; PREEMERGENCE, Rate 50 g/ha): 0
- Plant response rating (0 to 10 scale), Cotton ([9]; PREEMERGENCE, Rate 200 g/ha): 2
- Plant response rating, Cotton ([9]; Rate 200 g/ha, POSTEMERGENCE): 10
- Plant response rating, Crabgrass ([10]; POSTEMERGENCE, Rate 50 g/ha): 4
- Plant response rating, Crabgrass ([10]; PREEMERGENCE, Rate 50 g/ha): 2
- Plant response rating (0 to 10 scale), Crabgrass ([10]; PREEMERGENCE, Rate 200 g/ha): 8
- Plant response rating, Crabgrass ([10]; Rate 200 g/ha, POSTEMERGENCE): 5
- Plant response rating, Giant foxtail ([11]; POSTEMERGENCE, Rate 50 g/ha): 4
- Plant response rating, Giant foxtail ([11]; PREEMERGENCE, Rate 50 g/ha): 2
- Plant response rating (0 to 10 scale), Giant foxtail ([11]; PREEMERGENCE, Rate 200 g/ha): 9
- Plant response rating, Giant foxtail ([11]; Rate 200 g/ha, POSTEMERGENCE): 6
- Plant response rating, Lambsquarter ([12]; POSTEMERGENCE, Rate 50 g/ha): 10
- Plant response rating, Lambsquarter ([12]; PREEMERGENCE, Rate 50 g/ha): 10
- Plant response rating (0 to 10 scale), Lambsquarter ([12]; PREEMERGENCE, Rate 200 g/ha): 10
- Plant response rating, Lambsquarter ([12]; Rate 200 g/ha, POSTEMERGENCE): 10
- Plant response rating, Morningglory ([13]; POSTEMERGENCE, Rate 50 g/ha): 10
- Plant response rating, Morningglory ([13]; PREEMERGENCE, Rate 50 g/ha): 0
- Plant response rating (0 to 10 scale), Morningglory ([13]; PREEMERGENCE, Rate 200 g/ha): 10
- Plant response rating, Morningglory ([13]; Rate 200 g/ha, POSTEMERGENCE): 10
- Plant response rating, Rape ([14]; POSTEMERGENCE, Rate 50 g/ha): 8
- Plant response rating, Rape ([14]; PREEMERGENCE, Rate 50 g/ha): 4
- Plant response rating (0 to 10 scale), Rape ([14]; PREEMERGENCE, Rate 200 g/ha): 9
- Plant response rating, Rape ([14]; Rate 200 g/ha, POSTEMERGENCE): 10
- Plant response rating, Rice ([15]; POSTEMERGENCE, Rate 50 g/ha): 3
- Plant response rating, Rice ([15]; PREEMERGENCE, Rate 50 g/ha): 0
- Plant response rating (0 to 10 scale), Rice ([15]; PREEMERGENCE, Rate 200 g/ha): 2
- Plant response rating, Rice ([15]; Rate 200 g/ha, POSTEMERGENCE): 6
- Plant response rating, Sorghum ([16]; POSTEMERGENCE, Rate 50 g/ha): 4
- Plant response rating, Sorghum ([16]; PREEMERGENCE, Rate 50 g/ha): 0
- Plant response rating (0 to 10 scale), Sorghum ([16]; PREEMERGENCE, Rate 200 g/ha): 3
- Plant response rating, Sorghum ([16]; Rate 200 g/ha, POSTEMERGENCE): 7
- Plant response rating, Soybean ([17]; POSTEMERGENCE, Rate 50 g/ha): 10
- Plant response rating, Soybean ([17]; PREEMERGENCE, Rate 50 g/ha): 0
- Plant response rating (0 to 10 scale), Soybean ([17]; PREEMERGENCE, Rate 200 g/ha): 1
- Plant response rating, Soybean ([17]; Rate 200 g/ha, POSTEMERGENCE): 9
- Plant response rating, Sugar beet ([18]; POSTEMERGENCE, Rate 50 g/ha): 10
- Plant response rating, Sugar beet ([18]; PREEMERGENCE, Rate 50 g/ha): 9
- Plant response rating (0 to 10 scale), Sugar beet ([18]; PREEMERGENCE, Rate 200 g/ha): 10
- Plant response rating, Sugar beet ([18]; Rate 200 g/ha, POSTEMERGENCE): 10
- Plant response rating, Velvetleaf ([19]; POSTEMERGENCE, Rate 50 g/ha): 10
- Plant response rating, Velvetleaf ([19]; PREEMERGENCE, Rate 50 g/ha): 10
- Plant response rating (0 to 10 scale), Velvetleaf ([19]; PREEMERGENCE, Rate 200 g/ha): 10
- Plant response rating, Velvetleaf ([19]; Rate 200 g/ha, POSTEMERGENCE): 10
- Plant response rating, Wheat ([20]; PREEMERGENCE, Rate 50 g/ha): 3
- Plant response rating (0 to 10 scale), Wheat ([20]; PREEMERGENCE, Rate 200 g/ha): 4
- Plant response rating, Wheat ([20]; Rate 200 g/ha, POSTEMERGENCE): 7
- Plant response rating, Wild buckwheat ([21]; POSTEMERGENCE, Rate 50 g/ha): 10
- Plant response rating, Wild buckwheat ([21]; PREEMERGENCE, Rate 50 g/ha): 9
- Plant response rating (0 to 10 scale), Wild buckwheat ([21]; PREEMERGENCE, Rate 200 g/ha): 10
- Plant response rating, Wild buckwheat ([21]; Rate 200 g/ha, POSTEMERGENCE): 10
- Plant response rating, Wild oat ([22]; POSTEMERGENCE, Rate 50 g/ha): 3
- Plant response rating, Wild oat ([22]; PREEMERGENCE, Rate 50 g/ha): 3
- Plant response rating (0 to 10 scale), Wild oat ([22]; PREEMERGENCE, Rate 200 g/ha): 6
- Plant response rating, Wild oat ([22]; Rate 200 g/ha, POSTEMERGENCE): 5
- Plant response rating, Nutsedge ([23]; POSTEMERGENCE, Rate 50 g/ha): 1
- Plant response rating, Nutsedge ([23]; PREEMERGENCE, Rate 50 g/ha): 0
- Plant response rating (0 to 10 scale), Nutsedge ([23]; PREEMERGENCE, Rate 200 g/ha): 0
- Plant response rating, Nutsedge ([23]; Rate 200 g/ha, POSTEMERGENCE): 2
